This is an account of results in article PMC5218480 (PLoS ONE, 2017).

The experiment deals with MV-4-11 cells. Kind of experiment: Gene expression microarray analysis (Affymetrix PrimeView) and GSEA. In kind it is cell-based, human. Set-up: RFU PODN (11730768_x_at) / Fold change /veh PODN (11730768_x_at) / RFU LINC00158 (11744669_a_at) / Fold change /veh LINC00158 (11744669_a_at) / RFU DUSP10 (11751237_a_at) / Fold change /veh DUSP10 (11751237_a_at) / RFU ID3 (11757404_x_at) / Fold change /veh ID3 (11757404_x_at) / RFU PLEKHG5 (11737974_s_at) / Fold change /veh PLEKHG5 (11737974_s_at) / RFU LRRC4B (11730491_at) / Fold change /veh LRRC4B (11730491_at) / RFU GIMAP4 (11747438_a_at) / Fold change /veh GIMAP4 (11747438_a_at) / RFU KRT8 (11758183_x_at) / Fold change /veh KRT8 (11758183_x_at) / RFU CNN1 (11734310_a_at) / Fold change /veh CNN1 (11734310_a_at) / RFU VPS37D (11726825_at) / Fold change /veh VPS37D (11726825_at) / RFU C10orf10 (11716522_x_at) / Fold change /veh C10orf10 (11716522_x_at) / RFU KIR2DL2 /// KIR2DL4 /// KIR2DL5A /// KIR2DL5B /// KIR2DS1 /// KIR2DS2 /// KIR2DS3 /// KIR2DS4 /// KIR3DL3 /// KIR3DL3 /// KIR3DS1 (11738374_at) / Fold change /veh KIR2DL2 /// KIR2DL4 /// KIR2DL5A /// KIR2DL5B /// KIR2DS1 /// KIR2DS2 /// KIR2DS3 /// KIR2DS4 /// KIR3DL3 /// KIR3DL3 /// KIR3DS1 (11738374_at) / RFU C1QL1 (11718748_at) / Fold change /veh C1QL1 (11718748_at) / RFU TMPRSS4 (11747572_a_at) / Fold change /veh TMPRSS4 (11747572_a_at) / RFU HAMP (11756126_x_at) / Fold change /veh HAMP (11756126_x_at) / RFU RNFT2 (11725882_a_at) / Fold change /veh RNFT2 (11725882_a_at) / RFU NR4A2 (11747474_a_at) / Fold change /veh NR4A2 (11747474_a_at) / RFU ABCC12 (11746883_a_at) / Fold change /veh ABCC12 (11746883_a_at) / RFU TMEM136 (11760407_x_at) / Fold change /veh TMEM136 (11760407_x_at) / RFU CLDN22 /// WWC2 (11732394_at) / Fold change /veh CLDN22 /// WWC2 (11732394_at) / RFU HLA-DPB1 (11760878_x_at) / Fold change /veh HLA-DPB1 (11760878_x_at) / RFU SPINT1 (11716480_a_at) / Fold change /veh SPINT1 (11716480_a_at) / RFU GAP43 (11754022_s_at) / Fold change /veh GAP43 (11754022_s_at) / RFU A4GNT (11735810_at) / Fold change /veh A4GNT (11735810_at) / RFU PRB3 (11715151_x_at) / Fold change /veh PRB3 (11715151_x_at) / RFU TUBB4B (11761932_at) / Fold change /veh TUBB4B (11761932_at) / RFU CAPN14 (11732068_a_at) / Fold change /veh CAPN14 (11732068_a_at) / RFU TMCC2 (11721928_a_at) / Fold change /veh TMCC2 (11721928_a_at) / RFU IRGQ (11745062_a_at) / Fold change /veh IRGQ (11745062_a_at) / RFU FAM174B (11720279_a_at) / Fold change /veh FAM174B (11720279_a_at) / RFU TMPRSS4 (11748680_a_at) / Fold change /veh TMPRSS4 (11748680_a_at) / RFU FAM212B (11763350_a_at) / Fold change /veh FAM212B (11763350_a_at) / RFU PLEKHG5 (11743358_a_at) / Fold change /veh PLEKHG5 (11743358_a_at) / RFU ZSCAN30 (11745921_a_at) / Fold change /veh ZSCAN30 (11745921_a_at) / RFU CMKLR1 (11741424_a_at) / Fold change /veh CMKLR1 (11741424_a_at) / RFU LOC101060620 /// MAPK8IP1 (11723275_at) / Fold change /veh LOC101060620 /// MAPK8IP1 (11723275_at) / RFU SPTSSB (11747773_x_at) / Fold change /veh SPTSSB (11747773_x_at) / RFU PRSS12 (11739890_at) / Fold change /veh PRSS12 (11739890_at) / RFU BIN1 (11741810_x_at) / Fold change /veh BIN1 (11741810_x_at) / RFU WNT11 (11732464_a_at) / Fold change /veh WNT11 (11732464_a_at) / RFU C10orf10 (11716521_a_at) / Fold change /veh C10orf10 (11716521_a_at) / RFU C5orf56 (11738089_at) / Fold change /veh C5orf56 (11738089_at) / RFU CYB561 (11721691_x_at) / Fold change /veh CYB561 (11721691_x_at) / RFU ANKRD19P (11752326_a_at) / Fold change /veh ANKRD19P (11752326_a_at) / RFU OR2T12 /// OR2T33 /// OR2T8 (11738714_s_at) / Fold change /veh OR2T12 /// OR2T33 /// OR2T8 (11738714_s_at) / RFU VCAN (11748164_a_at) / Fold change /veh VCAN (11748164_a_at) / RFU JSRP1 (11732532_at) / Fold change /veh JSRP1 (11732532_at) / RFU KRTAP10-11 (11738290_x_at) / Fold change /veh KRTAP10-11 (11738290_x_at) / RFU MYO3A (11730013_a_at) / Fold change /veh MYO3A (11730013_a_at) / RFU EBF3 (11725865_a_at) / Fold change /veh EBF3 (11725865_a_at) / RFU CAMK2N1 (11719241_x_at) / Fold change /veh CAMK2N1 (11719241_x_at) / RFU C5orf56 (11738088_a_at) / Fold change /veh C5orf56 (11738088_a_at) / RFU OLFML3 (11715873_a_at) / Fold change /veh OLFML3 (11715873_a_at) / RFU LOC100653217 /// NTM (11731650_a_at) / Fold change /veh LOC100653217 /// NTM (11731650_a_at) / RFU MAPK11 (11762145_a_at) / Fold change /veh MAPK11 (11762145_a_at) / RFU FIZ1 (11724087_x_at) / Fold change /veh FIZ1 (11724087_x_at) / RFU OASL (11726364_x_at) / Fold change /veh OASL (11726364_x_at) / RFU SOX15 (11748057_x_at) / Fold change /veh SOX15 (11748057_x_at) / RFU CD79A (11719716_a_at) / Fold change /veh CD79A (11719716_a_at) / RFU HIST1H1D (11736915_at) / Fold change /veh HIST1H1D (11736915_at) / RFU CASKIN2 (11723855_a_at) / Fold change /veh CASKIN2 (11723855_a_at) / RFU LOC730098 (11760151_x_at) / Fold change /veh LOC730098 (11760151_x_at) / RFU OR4N2 (11742367_at) / Fold change /veh OR4N2 (11742367_at) / RFU PRRT2 (11749266_a_at) / Fold change /veh PRRT2 (11749266_a_at) / RFU SNX32 (11753110_a_at) / Fold change /veh SNX32 (11753110_a_at) / RFU CDHR5 (11726645_a_at) / Fold change /veh CDHR5 (11726645_a_at) / RFU RCAN1 (11760418_a_at) / Fold change /veh RCAN1 (11760418_a_at) / RFU FAM167A (11723789_a_at) / Fold change /veh FAM167A (11723789_a_at) / RFU FAM26E (11764081_at) / Fold change /veh FAM26E (11764081_at) / RFU ISYNA1 (11749810_s_at) / Fold change /veh ISYNA1 (11749810_s_at) / RFU ACY1 (11761880_at) / Fold change /veh ACY1 (11761880_at) / RFU 11764098_at / Fold change /veh 11764098_at / RFU SAMD14 (11745864_x_at) / Fold change /veh SAMD14 (11745864_x_at) / RFU NPB (11741838_a_at) / Fold change /veh NPB (11741838_a_at) / RFU TMPRSS6 (11731388_a_at) / Fold change /veh TMPRSS6 (11731388_a_at) / RFU KRTAP10-2 (11738614_at) / Fold change /veh KRTAP10-2 (11738614_at) / RFU ARHGAP8 /// PRR5-ARHGAP8 (11727945_x_at) / Fold change /veh ARHGAP8 /// PRR5-ARHGAP8 (11727945_x_at) / RFU KRTAP5-7 /// NADSYN1 (11734609_at) / Fold change /veh KRTAP5-7 /// NADSYN1 (11734609_at) / RFU RASL12 (11751679_a_at) / Fold change /veh RASL12 (11751679_a_at) / RFU CDKN2B (11736163_a_at) / Fold change /veh CDKN2B (11736163_a_at) / RFU PRF1 (11729649_at) / Fold change /veh PRF1 (11729649_at) / RFU, ZNF638 /// ZNF638-IT1 / Fold change vs veh, ZNF638 /// ZNF638-IT1 / RFU, PANK3 / Fold change vs veh, PANK3 / RFU, SH3YL1 / Fold change vs veh, SH3YL1 / RFU, ZEB2 / Fold change vs veh, ZEB2 / RFU, NRIP1 / Fold change vs veh, NRIP1 / RFU, PTTG1IP / Fold change vs veh, PTTG1IP / RFU, CAPN2 / Fold change vs veh, CAPN2 / RFU, MED14 / Fold change vs veh, MED14 / RFU, SNORA58 / Fold change vs veh, SNORA58 / RFU, C1orf63 / Fold change vs veh, C1orf63 / RFU, LRRFIP1 / Fold change vs veh, LRRFIP1 / RFU, NDUFAF7 / Fold change vs veh, NDUFAF7 / RFU, SLC12A2 / Fold change vs veh, SLC12A2 / RFU, IBTK / Fold change vs veh, IBTK / RFU, ESF1 / Fold change vs veh, ESF1 / Fold change vs veh, TMEM50B / RFU, TAOK1 / Fold change vs veh, TAOK1 / RFU, ACBD3 / Fold change vs veh, ACBD3 / RFU, TMA16 / Fold change vs veh, TMA16 / RFU, RWDD3 / Fold change vs veh, RWDD3 / RFU, BCAT1 / Fold change vs veh, BCAT1 / RFU, EDEM3 / Fold change vs veh, EDEM3 / RFU, TMEM33 / Fold change vs veh, TMEM33 / RFU, WDR75 / Fold change vs veh, WDR75 / RFU, AHCTF1 / Fold change vs veh, AHCTF1 / RFU, TFRC / Fold change vs veh, TFRC / RFU, ZDHHC17 / Fold change vs veh, ZDHHC17 / RFU, NOM1 / Fold change vs veh, NOM1 / RFU, ARL8B / Fold change vs veh, ARL8B / RFU, ZBTB11 / Fold change vs veh, ZBTB11 / RFU, TAMM41 / Fold change vs veh, TAMM41 / RFU, KIAA1704 /// LOC100996395 / Fold change vs veh, KIAA1704 /// LOC100996395 / RFU, ING1 / Fold change vs veh, ING1 / RFU, TRMT61B / Fold change vs veh, TRMT61B / RFU, FUBP3 / Fold change vs veh, FUBP3 / RFU, TP53 / Fold change vs veh, TP53 / RFU, TNKS2 / Fold change vs veh, TNKS2 / RFU, ZFP14 / Fold change vs veh, ZFP14 / RFU, ACTR2 / Fold change vs veh, ACTR2 / RFU, PPP3R1 / Fold change vs veh, PPP3R1 / RFU, PIK3R1 / Fold change vs veh, PIK3R1 / RFU, HNRNPA1 / Fold change vs veh, HNRNPA1 / RFU, RNF170 / Fold change vs veh, RNF170 / RFU, ZNF28 / Fold change vs veh, ZNF28 / RFU, RNGTT / Fold change vs veh, RNGTT / RFU, OGT / Fold change vs veh, OGT / RFU, BRD1 / Fold change vs veh, BRD1 / RFU, MARS / Fold change vs veh, MARS / RFU, ZNF655 / Fold change vs veh, ZNF655 / RFU, FAHD1 / Fold change vs veh, FAHD1 / RFU, BDP1 / Fold change vs veh, BDP1 / RFU, LRRCC1 / Fold change vs veh, LRRCC1 / RFU, ARID1A / Fold change vs veh, ARID1A / RFU, ZNF146 / Fold change vs veh, ZNF146 / RFU, ZNF330 / Fold change vs veh, ZNF330 / RFU, GPN3 / Fold change vs veh, GPN3 / RFU, C9orf123 / Fold change vs veh, C9orf123 / RFU, N4BP2L2 / Fold change vs veh, N4BP2L2 / RFU, ARFIP1 / Fold change vs veh, ARFIP1 / RFU, FAM179B / Fold change vs veh, FAM179B / RFU, BCL10 / Fold change vs veh, BCL10 / RFU, UHRF1BP1L / Fold change vs veh, UHRF1BP1L / RFU, BET1 / Fold change vs veh, BET1 / RFU, CNOT2 / Fold change vs veh, CNOT2 / RFU, ZNF268 / Fold change vs veh, ZNF268 / Fold change vs veh, ZNF507 / RFU, DGCR2 / Fold change vs veh, DGCR2 / RFU, WDSUB1 / Fold change vs veh, WDSUB1 / Fold change vs veh, HSP90B1 /// MIR3652 / RFU, ADSS / Fold change vs veh, ADSS / RFU, GK / Fold change vs veh, GK / RFU, ZNF148 / Fold change vs veh, ZNF148 / RFU, TAF9 / Fold change vs veh, TAF9 / RFU, SLC1A5 / Fold change vs veh, SLC1A5 / RFU, SLMO2 / Fold change vs veh, SLMO2 / RFU, ABCC4 / Fold change vs veh, ABCC4 / RFU, LOC101060439 /// RAP1B / Fold change vs veh, LOC101060439 /// RAP1B / RFU, RFX7 / Fold change vs veh, RFX7 / RFU, GTPBP10 / Fold change vs veh, GTPBP10 / RFU, CNEP1R1 / Fold change vs veh, CNEP1R1 / RFU, BIVM-ERCC5 /// ERCC5 / Fold change vs veh, BIVM-ERCC5 /// ERCC5 / RFU, ILF3 / Fold change vs veh, ILF3 / RFU 11762660_at / Fold change /veh 11762660_at / RFU VCAN (11757783_s_at) / Fold change /veh VCAN (11757783_s_at) / RFU DDX43 (11728927_at) / Fold change /veh DDX43 (11728927_at) / RFU KRT8 (11758188_x_at) / Fold change /veh KRT8 (11758188_x_at) / RFU NKD1 (11759106_at) / Fold change /veh NKD1 (11759106_at) / RFU SRD5A1 (11742802_a_at) / Fold change /veh SRD5A1 (11742802_a_at) / RFU TPSAB1 /// TPSB2 (11721975_s_at) / Fold change /veh TPSAB1 /// TPSB2 (11721975_s_at) / RFU GSTM3 (11746129_a_at) / Fold change /veh GSTM3 (11746129_a_at) / RFU IL23R (11737362_x_at) / Fold change /veh IL23R (11737362_x_at) / RFU TMEM51 (11727254_a_at) / Fold change /veh TMEM51 (11727254_a_at) / RFU PIWIL2 (11732686_x_at) / Fold change /veh PIWIL2 (11732686_x_at) / RFU ORM1 (11744905_x_at) / Fold change /veh ORM1 (11744905_x_at) / RFU CCDC152 (11743942_at) / Fold change /veh CCDC152 (11743942_at) / RFU ECM1 (11717891_a_at) / Fold change /veh ECM1 (11717891_a_at) / RFU IL23R (11748794_a_at) / Fold change /veh IL23R (11748794_a_at) / RFU TNFAIP8L3 (11732012_x_at) / Fold change /veh TNFAIP8L3 (11732012_x_at) / RFU MBOAT4 (11741988_at) / Fold change /veh MBOAT4 (11741988_at) / RFU 11764193_at / Fold change /veh 11764193_at / RFU TMEM53 (11763286_at) / Fold change /veh TMEM53 (11763286_at) / RFU MAGEB2 (11727129_at) / Fold change /veh MAGEB2 (11727129_at) / RFU TMEM200A (11744735_a_at) / Fold change /veh TMEM200A (11744735_a_at) / RFU CCDC152 (11751479_a_at) / Fold change /veh CCDC152 (11751479_a_at) / RFU FAM211A (11726209_a_at) / Fold change /veh FAM211A (11726209_a_at) / RFU RGS16 (11746705_a_at) / Fold change /veh RGS16 (11746705_a_at) / RFU VCAN (11755009_s_at) / Fold change /veh VCAN (11755009_s_at) / RFU RHOB (11743442_s_at) / Fold change /veh RHOB (11743442_s_at) / RFU RGS16 (11720943_a_at) / Fold change /veh RGS16 (11720943_a_at) / RFU RGS16 (11720944_at) / Fold change /veh RGS16 (11720944_at) / RFU, VPS4B / Fold change vs veh, VPS4B / RFU, CREB1 / Fold change vs veh, CREB1 / RFU, DNAJC13 / Fold change vs veh, DNAJC13 / RFU, GNAQ / Fold change vs veh, GNAQ / RFU, CDK5R1 / Fold change vs veh, CDK5R1 / RFU, ZRANB3 / Fold change vs veh, ZRANB3 / RFU, CUL4A / Fold change vs veh, CUL4A / RFU, CCNY / Fold change vs veh, CCNY / RFU, UFL1 / Fold change vs veh, UFL1 / RFU, COG3 / Fold change vs veh, COG3 / RFU, DIAPH2 / Fold change vs veh, DIAPH2 / RFU, SKA2 / Fold change vs veh, SKA2 / RFU, AFF3 / Fold change vs veh, AFF3 / RFU, LMF1 / Fold change vs veh, LMF1 / RFU, IPO11 / Fold change vs veh, IPO11 / RFU, DFFB / Fold change vs veh, DFFB / RFU, FOXP1 / Fold change vs veh, FOXP1 / RFU, CARD8 / Fold change vs veh, CARD8 / RFU, STRN3 / Fold change vs veh, STRN3 / RFU, ADK / Fold change vs veh, ADK / RFU, RASSF2 / Fold change vs veh, RASSF2 / RFU, WIPF1 / Fold change vs veh, WIPF1 / RFU, LARP1B / Fold change vs veh, LARP1B / RFU, RASA1 / Fold change vs veh, RASA1 / RFU, RB1 / Fold change vs veh, RB1 / RFU, PPFIA1 / Fold change vs veh, PPFIA1 / RFU, MAT2A / Fold change vs veh, MAT2A / RFU, CCT5 / Fold change vs veh, CCT5 / RFU, WDR92 / Fold change vs veh, WDR92 / RFU, CUX1 / Fold change vs veh, CUX1 / RFU, TTC7A / Fold change vs veh, TTC7A / RFU, TMEM135 / Fold change vs veh, TMEM135 / RFU, DEPTOR / Fold change vs veh, DEPTOR / RFU, CPM / Fold change vs veh, CPM / RFU, DNAJB6 / Fold change vs veh, DNAJB6 / RFU, CACNA2D3 / Fold change vs veh, CACNA2D3 / RFU, DTX4 / Fold change vs veh, DTX4 / RFU, TFCP2 / Fold change vs veh, TFCP2 / RFU, GMCL1 /// GMCL1P1 / Fold change vs veh, GMCL1 /// GMCL1P1 / RFU, AEBP2 / Fold change vs veh, AEBP2 / RFU, SNHG1 /// SNORD22 /// SNORD25 /// SNORD26 /// SNORD27 /// SNORD28 /// SNORD29 /// SNORD31 / Fold change vs veh, SNHG1 /// SNORD22 /// SNORD25 /// SNORD26 /// SNORD27 /// SNORD28 /// SNORD29 /// SNORD31 / Fold change (Aza/veh), C12orf56 (ProbeSet 11735607_a_at) / Fold change (ACY-1035/veh), C12orf56 (ProbeSet 11735607_a_at) / Fold change (Aza/veh), FGFR1OP (ProbeSet 11751329_s_at) / Fold change (ACY-1035/veh), FGFR1OP (ProbeSet 11751329_s_at) / Fold change (Aza/veh), VPS36 (ProbeSet 11739960_a_at) / Fold change (ACY-1035/veh), VPS36 (ProbeSet 11739960_a_at) / RFU SYPL1 (11715823_x_at) / Fold change /veh SYPL1 (11715823_x_at) / RFU IGFBP7 (11715501_s_at) / Fold change /veh IGFBP7 (11715501_s_at) / RFU REEP3 (11722064_at) / Fold change /veh REEP3 (11722064_at) / RFU IGLL1 (11728026_x_at) / Fold change /veh IGLL1 (11728026_x_at): dose or concentration left out as unconfirmed. The note with it: ProbeSet 11728314_at; LIST B.

For the compound `Nc1ncn([C@@H]2O[C@H](CO)[C@@H](O)[C@H]2O)c(=O)n1` [azacitidine], the “RFU, ZNF148” value is 202.48 RFU.
